Measurements as given in patent publication US20130029942A1, “COMPOUNDS AND THERAPEUTICAL USES THEREOF” (Myrexis, Inc., priority 2003, published 2013).
Counter-ions that a name gives are not always drawn.

Each compound was assayed on P388 murine leukemia cell line (assay: P388 cytotoxicity (ATP-Lite, 72 hours)). Settings: Mus musculus, P388, 72 hours.
Format: cell-based
Procedure: A P388 murine leukemia cell line was obtained from NCI, Frederick, Md. P388 cells were cultured in RPMI-1640 supplemented with 10% fetal bovine serum, 2 mM Glutamax, 1 mM sodium pyruvate, 0.1 mM non-essential amino acids and 10 mM HEPES. Cells were grown at 37° C. in a humidified 5% CO2 atmosphere. Exponentially growing P388 cells were plated at 5,000 cells/well in a 96-well flat-bottomed microtiter plate (Corning, Costar #3595). […] Cellular viability was determined 72 hours later by measuring intracellular ATP with ATP-Lite assay system. The effect of compounds on cell viability was calculated by comparing the ATP levels of cells exposed to test compound with those of cells exposed to DMSO. […] Data was analyzed by Prism software (GraphPad; San Diego, Calif.) by fitting it to a sigmoidal dose response curve.

Compound | IC50
COC(=O)CN(C)c1nc(N(C)c2ccc(OC)cc2)c2ccccc2n1 [Example 187, ({4-[(4-Methoxy-phenyl)-methyl-amino]-quinazolin-2-yl}-methyl-amino)-acetic acid methyl ester] | 0.11 µM
COc1cccc(CN(C)c2nc(Cl)nc3ccccc23)c1 [Example 179, (2-Chloro-quinazolin-4-yl)-(3-methoxy-benzyl)-methyl-amine] | 1.4 µM
Cc1nc(N(C)c2ccc(OC(F)F)cc2)c2cc(N)ccc2n1 [Example 216, N^4-(4-Difluoromethoxy-phenyl)-2,N^4-dimethyl-quinazoline-4,6-diamine] | 0.02 µM
COc1ccc(N(C)c2nc(C(C)(C)C#N)nc3ccccc23)cc1 [Example 231, 2-{4-[(4-Methoxy-phenyl)-methyl-amino]-quinazolin-2-yl}-2-methyl-propionitrile] | 0.037 µM
COc1ccc(N(C)c2nc(C(F)(F)F)nc3ccccc23)cc1 [Example 199, (4-Methoxy-phenyl)-methyl-(2-trifluoromethyl-quinazolin-4-yl)-amine] | 0.003 µM
COc1ccc(N(C)c2nc(N(C)CCO)nc3ccccc23)cc1 [Example 174, 2-({4-[(4-Methoxy-phenyl)-methyl-amino]-quinazolin-2-yl}-methyl-amino)-ethanol] | 0.022 µM
COc1ccc(N(C)c2nc(CN3CCCC3=O)nc3ccccc23)cc1 [Example 255, 1-{4-[(4-Methoxy-phenyl)-methyl-amino]-quinazolin-2-ylmethyl}-pyrrolidin-2-one] | 0.61 µM
CNc1ccc(N(C)c2nc(C)nc3ccc(N)cc23)cc1 [Example 225, 2,N^4-Dimethyl-N^4-(4-methylamino-phenyl)-quinazoline-4,6-diamine] | 0.037 µM
COc1ccc(N(C)c2nncc3cc(F)ccc23)cc1 [Example 196, (6-Fluoro-phthalazin-1-yl)-(4-methoxy-phenyl)-methyl-amine] | 0.33 µM
CCOc1ccc(N(C)c2nc(C)nc3ccc(N)cc23)cc1 [Example 214, N^4-(4-Ethoxy-phenyl)-2,N^4-dimethyl-quinazoline-4,6-diamine] | 0.009 µM
COc1ccc(N(C)c2nc(CN)nc3ccccc23)c(F)c1 [Example 218, (2-Aminomethyl-quinazolin-4-yl)-(2-fluoro-4-methoxy-phenyl)-methyl-amine] | 0.012 µM
COc1ccc(N(C)c2nc(C)nc3sccc23)cc1 [Example 176, (4-Methoxy-phenyl)-methyl-(2-methyl-thieno[2,3-d]pyrimidin-4-yl)-amine] | 0.003 µM
COc1c(Cl)cc(N(C)c2nc(CN)nc3ccccc23)cc1Cl [Example 254, (2-Aminomethyl-quinazolin-4-yl)-(3,5-dichloro-4-methoxy-phenyl)-methyl-amine bis(hydrochloride)] | 5.2 µM
CCOC(=O)CNc1nc2c(c(N(C)c3ccc(OC)cc3)n1)CCCC2 [Example 191, {4-[(4-Methoxy-phenyl)-methyl-amino]-5,6,7,8-tetrahydro-quinazolin-2-ylamino}-acetic acid ethyl ester] | 0.47 µM
CONc1nc2c(c(N(C)c3ccc(OC)cc3)n1)CCCC2 [Example 190, N-{4-[(4-Methoxy-phenyl)-methyl-amino]-5,6,7,8-tetrahydro-quinazolin-2-yl}-O-methyl-hydroxylamine] | 0.006 µM
CCOc1ccc(N(C)c2nc(CCl)nc3ccccc23)cc1Cl [Example 258, (3-Chloro-4-ethoxy-phenyl)-(2-chloromethyl-quinazolin-4-yl)-methyl-amine] | 0.015 µM
COc1ccc(N(C)c2nc(NCCO)nc3ccc([N+](=O)[O-])cc23)cc1 [Example 186, 2-{4-[(4-Methoxy-phenyl)-methyl-amino]-6-nitro-quinazolin-2-ylamino}-ethanol] | 1.8 µM
COc1ccc(N(C)c2nc(NCCN)nc3ccccc23)cc1 [Example 145, N^2-(2-Amino-ethyl)-N^4-(4-methoxy-phenyl)-N^4-methyl-quinazoline-2,4-diamine] | 0.038 µM
CCOc1ccc(N(C)c2nc(CN)nc3cccc(F)c23)c(F)c1 [Example 250, (2-Aminomethyl-5-fluoro-quinazolin-4-yl)-(4-ethoxy-2-fluoro-phenyl)-methyl-amine] | 0.022 µM
COc1ccc(N(C)c2nc(CN)nc3cccc(F)c23)cc1 [Example 229, (2-Aminomethyl-5-fluoro-quinazolin-4-yl)-(4-methoxy-phenyl)-methyl-amine] | 0.005 µM
CNCc1nc(N(C)c2ccc(OC)cc2)c2ccccc2n1 [Example 233, (4-Methoxy-phenyl)-methyl-(2-methylaminomethyl-quinazolin-4-yl)-amine] | 1.1 µM

Compound | IC50
COc1ccc(N(C)c2nc(CNC(=O)c3cccnc3)nc3ccccc23)cc1 [Example 244, N-{4-[(4-Methoxy-phenyl)-methyl-amino]-quinazolin-2-ylmethyl}-nicotinamide] | 0.058 µM
COc1ccc(N(C)c2nc(CNC(=O)CCC(=O)O)nc3ccccc23)cc1 [Example 232, N-{4-[(4-Methoxy-phenyl)-methyl-amino]-quinazolin-2-ylmethyl}-succinamic acid] | 0.95 µM
CNc1nc2c(c(N(C)c3ccc(OC)cc3)n1)CCCCC2 [Example 201, N4-(4-Methoxy-phenyl)-N2,N4-dimethyl-6,7,8,9-tetrahydro-5H-cycloheptapyrimidine-2,4-diamine] | 0.076 µM
COc1ccc(N(C)c2nc(NCCCCO)nc3ccccc23)cc1 [Example 181, 4-{4-[(4-Methoxy-phenyl)-methyl-amino]-quinazolin-2-ylamino}-butan-1-ol] | 0.013 µM
CONc1nc2c(c(N(C)c3ccc(OC)cc3)n1)CCC2 [Example 197, N-{4-[(4-Methoxy-phenyl)-methyl-amino]-6,7-dihydro-5H-cyclopentapyrimidin-2-yl}-O-methyl-hydroxylamine] | 0.008 µM
COc1ccc(N(C)c2nc(CN)nc3ccccc23)cc1Cl [Example 240, (2-Aminomethyl-quinazolin-4-yl)-(3-chloro-4-methoxy-phenyl)-methyl-amine] | 0.006 µM
CNc1nc(N(C)c2ccc(OC)c(OC)c2)c2ccccc2n1 [Example 167, N^4-(3,4-Dimethoxy-phenyl)-N^2,N^4-dimethyl-quinazoline-2,4-diamine] | 0.015 µM
COc1ccc(N(C)c2nc(C)nc3ccc(N)cc23)cc1OC [Example 223, N^4-(3,4-Dimethoxy-phenyl)-2,N^4-dimethyl-quinazoline-4,6-diamine] | 0.064 µM
COc1ccc(N(C)c2nc(CN)nc3ccc(N)cc23)cc1 [Example 213, 2-Aminomethyl-N4-(4-methoxy-phenyl)-N4-methyl-quinazoline-4,6-diamine] | 0.17 µM
COc1ccc(N(C)c2nc(OC(C)C)nc3cccc(F)c23)cc1 [Example 198, (5-Fluoro-2-isopropoxy-quinazolin-4-yl)-(4-methoxy-phenyl)-methyl-amine] | 0.003 µM
COc1ccc(N(C)c2nc(CNC(C)=O)nc3ccccc23)cc1 [Example 203, N-{4-[(4-Methoxy-phenyl)-methyl-amino]-quinazolin-2-ylmethyl}-acetamide] | 0.019 µM
COc1ccc(N(C)c2nc(C)nc3ccsc23)cc1 [Example 185, (4-Methoxy-phenyl)-methyl-(2-methyl-thieno[3,2-d]pyrimidin-4-yl)-amine] | 0.007 µM
CCOc1ccc(N(C)c2nc(CN)nc3ccccc23)c(F)c1 [Example 237, (2-Aminomethyl-quinazolin-4-yl)-(4-ethoxy-2-fluoro-phenyl)-methyl-amine] | 0.015 µM
COc1ccc(N(C)c2nc(C)nc3ccc(NS(=O)(=O)c4ccc(OC)cc4)cc23)cc1 [Example 236, 4-Methoxy-N-{4-[(4-methoxy-phenyl)-methyl-amino]-2-methyl-quinazolin-6-yl}-benzenesulfonamide] | 0.68 µM
CCOC(=O)CNc1nc2c(c(N(C)c3ccc(OC)cc3)n1)CCC2 [Example 202, {4-[(4-Methoxy-phenyl)-methyl-amino]-6,7-dihydro-5H-cyclopentapyrimidin-2-ylamino}-acetic acid ethyl ester] | 0.3 µM
COc1ccc(N(C)c2nc(NCCCl)nc3ccccc23)cc1 [Example 178, N^2-(2-Chloro-ethyl)-N^4-(4-methoxy-phenyl)-N^4-methyl-quinazoline-2,4-diamine] | 0.018 µM
Cc1nc(N(C)c2ccc(OC(C)C)cc2)c2cc(N)ccc2n1 [Example 226, N^4-(4-Isopropoxy-phenyl)-2,N^4-dimethyl-quinazoline-4,6-diamine] | 0.02 µM
CC(C)Oc1ccc(N(C)c2nc(CN)nc3ccccc23)cc1 [Example 217, (2-Aminomethyl-quinazolin-4-yl)-(4-isopropoxy-phenyl)-methyl-amine] | 0.018 µM
COc1ccc(N(C)c2nc(CN)nc3ccc(-c4ccc(Cl)cc4)cc23)cc1 [Example 241, [2-Aminomethyl-6-(4-chloro-phenyl)-quinazolin-4-yl]-(4-methoxy-phenyl)-methyl-amine] | 1.44 µM
CC(C)Oc1ccc(N(C)c2nc(CN)nc3ccc(N)cc23)cc1 [Example 220, 2-Aminomethyl-N^4-(4-isopropoxy-phenyl)-N^4-methyl-quinazoline-4,6-diamine] | 0.87 µM
